Measured values from PMC4741190, “Crystal structure of the flavoenzyme PA4991 from Pseudomonas aeruginosa” (Acta Crystallographica. Section F, Structural Biology …, 2016).

Biological target: T1, PA4991 (Pseudomonas aeruginosa, UniProt Q9HUH4)
T1 construct: N-terminal His6 tag cut with TEV protease; expressed in E. coli BL21(DE3)
T1 sequence (Q9HUH4 1-391): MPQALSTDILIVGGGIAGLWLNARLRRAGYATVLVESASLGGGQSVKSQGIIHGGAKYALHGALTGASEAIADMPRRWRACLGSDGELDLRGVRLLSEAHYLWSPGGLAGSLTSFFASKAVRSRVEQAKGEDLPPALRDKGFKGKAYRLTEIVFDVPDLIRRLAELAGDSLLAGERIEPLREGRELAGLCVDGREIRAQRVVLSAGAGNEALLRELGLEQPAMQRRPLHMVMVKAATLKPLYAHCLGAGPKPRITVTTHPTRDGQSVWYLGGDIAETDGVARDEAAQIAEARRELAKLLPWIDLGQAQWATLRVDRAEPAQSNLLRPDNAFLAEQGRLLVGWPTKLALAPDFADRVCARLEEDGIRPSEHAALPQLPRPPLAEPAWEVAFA
Experiment: X-ray crystal structure, […] A; UV-visible spectrum
Format: binding
Details: noncovalent; co-purified cofactor, extended conformation; crystals pH 8.5, soaked in 1 mM phenylmercuric chloride

For `Cc1cc2nc3c(=O)[nH]c(=O)nc-3n(C[C@H](O)[C@H](O)[C@H](O)COP(=O)(O)OP(=O)(O)OC[C@H]3O[C@@H](n4cnc5c(N)ncnc54)[C@H](O)[C@@H]3O)c2cc1C` [FAD], the “X-ray crystal structure, 2.40 A; UV-visible spectrum” value was “FAD is bound noncovalently to PA4991 in an extended conformation”.
